Assay results: paper PMC9268515, “UGT1A1 and UGT1A9 Are Responsible for Phase II Metabolism of Tectorigenin and Irigenin In Vitro” (Molecules, 2022)
Where two headings read alike, the source gives them in different places. Values belong to the molecule of their own block, whether it stands above or below them.

Tests used:
[1] = test system: UGTs in HLMs; test: Inhibition of glucuronidation reaction by chemical inhibitors in HLMs; assay type: in vitro ADME, human; conditions: vs. control without inhibitor
Description: To obtain suitable incubation conditions, we first evaluated the linearity of metabolite formation at different times (10-60 min), the UDPGA concentrations (0.5-5 mM), and the microsome protein concentrations in HLMs (0.2-2 mg/mL). The final incubation medium used in the experiment contained MgCl2 (10 mM), microsomes (0.5 mg/mL), 1,4-lactone monohydrate (5 mM), alamethicin ([…]), UDPGA (1 mM), and different concentrations of tectorigenin or […] (1-300 μM) in Tris-HCl buffer (50 mM, pH 7.4). The mixture was incubated at 37 °C for 30 min; then, the reaction was stopped by adding ice-cold methanol. After the mixtures were centrifuged (17,000 rpm, 10 min), and the supernatant was analyzed by HPLC. Michaelis-Menten parameters (Vmax and Km) were determined on the basis of the nonlinear regression of the plot of the substrate concentration vs. rate of metabolite formation. Several well-characterized UGT substrates were used as “inhibitors” to examine the involvement of UGTs in the glucuronidation of tectorigenin or […]. To reduce nonspecific inhibition, the concentration of each inhibitor was determined according to the available literature, namely, 100 μM silibinin for UGT1A1 [31], 50 μM trifluoperazine for UGT1A4 [32], 100 μM 1-naphthol for UGT1A6/1A9 [18, 33], and 500 μM fluconazole for UGT2B7 [34]. A reaction without inhibitors was carried out in parallel as a control.

[2] = test system: pooled human liver microsomes (HLMs); test: Glucuronidation kinetics of tectorigenin and irigenin in HLMs; assay type: in vitro ADME; conditions: irigenin glucuronidation in HLMs
Description: To obtain suitable incubation conditions, we first evaluated the linearity of metabolite formation at different times (10–60 min), the UDPGA concentrations (0.5–5 mM), and the microsome protein concentrations in HLMs (0.2–2 mg/mL). The final incubation medium used in the experiment contained MgCl2 (10 mM), microsomes (0.5 mg/mL), 1,4-lactone monohydrate (5 mM), alamethicin ([…]), UDPGA (1 mM), and different concentrations of tectorigenin or irigenin (1–300 μM) in Tris-HCl buffer (50 mM, pH 7.4). The mixture was incubated at 37 °C for 30 min; then, the reaction was stopped by adding ice-cold methanol. After the mixtures were centrifuged (17,000 rpm, 10 min), and the supernatant was analyzed by HPLC. Michaelis–Menten parameters (Vmax and Km) were determined on the basis of the nonlinear regression of the plot of the substrate concentration vs. rate of metabolite formation.
(§1) For both HLMs and UGTs, metabolic kinetic analysis was performed by fitting the data to the Michaelis-Menten model. The Km and Vmax of enzymes were calculated as follows:(3) V=Vmax×[S]/Km+[S], where [S] is the substrate concentration. All results were shown as the mean ± standard error (SE). Differences among different groups were compared using one-way analysis of variance. A p-value < 0.05 was considered statistically significant.

[3] = target: T1, UGT1A1 (Homo sapiens, UniProt P22309); test: Recombinant UGT reaction screening and enzyme kinetics, UGT1A1; assay type: in vitro ADME; conditions: recombinant UGT1A1 screening
T1 construct: purchased BD Biosciences (Woburn, MA, USA)
T1 sequence (P22309 26-533): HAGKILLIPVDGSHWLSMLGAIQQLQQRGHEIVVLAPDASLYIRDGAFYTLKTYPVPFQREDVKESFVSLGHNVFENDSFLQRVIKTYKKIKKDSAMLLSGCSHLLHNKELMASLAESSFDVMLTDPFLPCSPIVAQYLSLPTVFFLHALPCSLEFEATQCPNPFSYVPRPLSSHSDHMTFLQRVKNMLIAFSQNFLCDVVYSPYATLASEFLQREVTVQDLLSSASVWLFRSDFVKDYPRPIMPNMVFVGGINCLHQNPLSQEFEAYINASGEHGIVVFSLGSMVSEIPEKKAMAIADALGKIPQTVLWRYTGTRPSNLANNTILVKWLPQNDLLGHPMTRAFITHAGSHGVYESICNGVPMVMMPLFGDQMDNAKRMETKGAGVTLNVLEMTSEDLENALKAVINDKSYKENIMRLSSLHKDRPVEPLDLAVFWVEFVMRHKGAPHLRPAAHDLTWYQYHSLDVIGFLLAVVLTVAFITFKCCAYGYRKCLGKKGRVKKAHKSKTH
Description: (§2) UGT reaction screening of tectorigenin and irigenin was conducted using nine commercially available human UGTs (UGT1A1/1A3/1A4/1A6/1A9/2B4/2B7/2B15/2B17). Furthermore, we studied the enzymatic kinetic characteristics of tectorigenin and irigenin using UGT1A1 and UGT1A9. Six concentrations of tectorigenin and irigenin (1, 3, 10, 30, 100, and 300 μM) were incubated in triplicate in order to obtain the enzyme kinetic characteristics of tectorigenin and irigenin glucuronide.
as §1

[4] = target: T2, UGT1A9 (Homo sapiens, UniProt O60656); test: Recombinant UGT reaction screening and enzyme kinetics, UGT1A9; assay type: in vitro ADME; conditions: recombinant UGT1A9 screening
T2 construct: purchased BD Biosciences (Woburn, MA, USA)
T2 sequence (O60656 26-530): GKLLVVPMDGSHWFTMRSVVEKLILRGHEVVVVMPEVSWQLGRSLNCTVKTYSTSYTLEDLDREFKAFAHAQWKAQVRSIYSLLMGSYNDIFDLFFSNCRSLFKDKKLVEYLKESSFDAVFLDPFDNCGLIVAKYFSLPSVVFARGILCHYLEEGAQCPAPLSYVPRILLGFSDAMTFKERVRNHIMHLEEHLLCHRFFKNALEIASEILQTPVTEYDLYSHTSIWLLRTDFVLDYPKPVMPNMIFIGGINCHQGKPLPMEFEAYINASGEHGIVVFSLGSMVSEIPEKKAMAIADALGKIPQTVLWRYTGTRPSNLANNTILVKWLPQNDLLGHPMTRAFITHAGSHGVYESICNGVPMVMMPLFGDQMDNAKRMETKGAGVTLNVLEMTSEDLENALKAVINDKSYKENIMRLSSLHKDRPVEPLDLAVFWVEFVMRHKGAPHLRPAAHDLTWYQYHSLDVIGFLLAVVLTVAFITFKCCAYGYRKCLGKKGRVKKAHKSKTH
Description: as §2, §1

[5] = Stability experiment under different storage conditions; assay type: physicochemical; conditions: for Stability in Autosampler for 12 h, RE (%): 4 °C; for Stability in Autosampler for 12 h, RE (%) / Stability in Inactivated Metabolic System for 2 h, RE (%) / Stability −80 °C for 7 Days, RE (%): n = 5; for Stability in Inactivated Metabolic System for 2 h, RE (%): approximately 25 °C
Description: In the stability experiment, we evaluated the stability of tectorigenin and irigenin, as well as their metabolites, under different conditions. […] Metabolites (M, M1, and M2) were stable in the inactivated metabolic system for 2 h (held constant at approximately 25 °C) and after storage for 7 days (−80 °C), as well as in the pretreated samples placed in the autosampler for 12 h at 4 °C.

[6] = substrate: COc1c(O)cc2occ(-c3ccc(O)cc3)c(=O)c2c1O; test: Recombinant UGT reaction screening and enzyme kinetics, UGT1A1; assay type: in vitro ADME, human; conditions: other: tectorigenin glucuronidation (M) by UGT1A1
Description: as §2, §1

[7] = substrate: COc1cc(-c2coc3cc(O)c(OC)c(O)c3c2=O)cc(O)c1OC; test: as above; assay type: in vitro ADME, human; conditions: other: irigenin glucuronidation, UGT1A1(M1)
Description: as §2, §1

[8] = substrate: COc1c(O)cc2occ(-c3ccc(O)cc3)c(=O)c2c1O; test: Recombinant UGT reaction screening and enzyme kinetics, UGT1A9; assay type: in vitro ADME, human; conditions: other: tectorigenin glucuronidation (M) by UGT1A9
Description: as §2, §1

[9] = substrate: COc1cc(-c2coc3cc(O)c(OC)c(O)c3c2=O)cc(O)c1OC; test: as above; assay type: in vitro ADME, human; conditions: other: irigenin glucuronidation
Description: as §2, §1

[10] = 100 μM silibinin, 100 μM 1-naphthol

Molecule: Oc1cccc2ccccc12 [1-naphthol]
- Effect of UGT inhibitor on production of M2 from irigenin ([1]; 100 μM 1-naphthol): inhibited
- Effect of UGT inhibitor on tectorigenin glucuronidation [1, 10]: significantly inhibited

- Km ([2]; metabolite M1, read-out: Km for M1 formation): 16.9 ± 2.96 µM
- Km ([2]; metabolite M2, read-out: Km for M2 formation): 27.4 ± 2.46 µM
- Activity in glucuronidation of irigenin, M1 formation [3]: highest activity
- Activity in glucuronidation of irigenin, M2 formation [4]: highest effect
- Stability in pretreated samples in the autosampler ([5]; autosampler 12 h at 4 °C): stable
- RE and RSD values in pretreated samples in the autosampler ([5]; autosampler 12 h at 4 °C, printed as below ±5%): < 5%
Molecule: COc1cc(-c2coc3cc(O)c(OC)c(O)c3c2=O)cc(O)c1OC [Irigenin, 3’,5,7-trihydroxy-4’,5’,6-trimethoxy isoflavone]
- Vmax for M1 formation ([2]; metabolite M1): 6.09 ± 0.27 nmol/min/mg
- Vmax for M2 formation ([2]; metabolite M2): 1.16 ± 0.03 nmol/min/mg

- Stability in Autosampler for 12 h, RE (%) ([5]; High concentration): −5.18%
- Stability in Inactivated Metabolic System for 2 h, RE (%) ([5]; High concentration): 0.59%
- Stability −80 °C for 7 Days, RE (%) ([5]; High concentration): 4.71%
- Stability in Autosampler for 12 h, RE (%) ([5]; Low concentration): −2.13%
- Stability in Inactivated Metabolic System for 2 h, RE (%) ([5]; Low concentration): 0.38%
- Stability −80 °C for 7 Days, RE (%) ([5]; Low concentration): 2.90%
- Stability of metabolites ([5]; inactivated metabolic system 2 h (approx. 25 °C), 7 days at −80 °C, autosampler 12 h at 4 °C): stable
Molecule: COc1c(O[C@@H]2O[C@H](C(=O)O)[C@@H](O)[C@H](O)[C@H]2O)cc2occ(-c3ccc(O)cc3)c(=O)c2c1O [M, tectorigenin-7-O-glucuronide]

Molecule: COc1cc(C2Oc3cc([C@H]4Oc5cc(O)cc(O)c5C(=O)[C@@H]4O)ccc3OC2CO)ccc1O (some centres unmarked) [Silibinin]
- Effect of UGT inhibitor on tectorigenin glucuronidation [1, 10]: significantly inhibited
- Effect of UGT inhibitor on production of M1 from irigenin ([1]; 100 μM silibinin): significantly inhibited

B1: UGT1A1 (Homo sapiens) (protein)
chain: T1 sequence (P22309 26-533)
notes: purchased BD Biosciences (Woburn, MA, USA)
- Km [6]: 4.064e-05 ± 5.56e-06 M
- Vmax [6]: 0.00901 µmol/min/mg
- Km [7]: 20.86 ± 2.04 µM
- Vmax [7]: 0.00522 µmol/min/mg

B2: UGT1A9 (Homo sapiens) (protein)
chain: T2 sequence (O60656 26-530)
notes: as for B1
- Km [8]: 1.837e-05 ± 1.16e-06 M
- Vmax [8]: 0.00349 µmol/min/mg
- Km ([9]; UGT1A9(M1)): 73.88 ± 4.04 µM
- Vmax ([9]; UGT1A9(M1)): 0.00045 µmol/min/mg
- Km ([9]; UGT1A9(M2)): 25.04 ± 2.37 µM
- Vmax ([9]; UGT1A9(M2)): 0.00456 µmol/min/mg
